The source of these data is patent EP3815699A1, “NEW MEANS AND METHODS FOR THERAPY AND DIAGNOSIS OF […]” (Technische Universität München, priority 2019, dated 2021).

One may read the IC50 as the concentration that inhibits the measured activity by half.

“Also recorded” adds a separate entry of the source. Like-named read-outs stand apart in the source and are kept apart here.

Common to all, as to format: cell-based
In assay [1] the test system is HAdV-C5 wt. As to the kind of experiment: Western blot of viral protein expression (Fig. 3C). As to conditions: 1 and 2µM ATO.
In assay [2] the test system is HAdV-C5 delta E3 virus, encoding a CMV promoter driven eGFP expression cassette. As to the kind of experiment: GFP fluorescence of replication competent GFP-expressing virus in H1299 cells (Fig. 2B). As to conditions: for IC50: read-out: IC50 (HAdV infection, GFP). The procedure: • Figure 1: ATO efficiently reduces HAdV infectivity (cf. Example 1). H1299 cells were infected with HAdV-C5 wt at a multiplicity of 5 FFU/cell, treated with the depicted concentrations of ATO at 2 h.p.i., fixed 48 h.p.i. with 4 % PFA and double labeled with mAb B6-8 (α-E2A) and pAb L133 (α-Capsid). Primary antibodies were detected using Alexa488 (E2A, green) and Alexa568 (Capsid, red) conjugated secondary antibodies. (A) The number of E2A and Capsid expressing cells, respectively, was counted in n=40 overview pictures (not shown), normalized to untreated, infected cells, and represented in bar charts. Bar charts represent average values and standard deviations based on four independent experiments. (B) H1299 cells were infected with HAdV-C5 at a multiplicity of 20 FFU/cell, and treated with the depicted concentrations of ATO at 2 h.p.i.. Viral particles were harvested 48 h.p.i. and virus yield was determined by quantitative E2A immunofluorescence staining in 293 cells. Bar charts represent average values and standard deviations based on three independent experiments. Statistically significant differences were determined using a two-sided Welch's t-test. *: P ≤ 0.05, **: P ≤ 0.01, ***: P ≤ 0.001, ****: P ≤ 0.0001. • Figure 2: ATO induces a dose dependent reduction of HAdV infectivity with minor effects on cell viability (cf. Example 2). (A) H1299 cells were infected with HAdV-C5 wt at a multiplicity of 20 FFU/cell and treated with the depicted concentrations of ATO at 2 h.p.i.. 24 or 48 h.p.i., cell viability was assessed using the Promega CellTiter-Blue Cell Viability Assay system, prior to fixation with 4 % PFA and cells were double labeled with mAb B6-8 (α-E2A) and pAb L133 (α-Capsid). Primary antibodies were detected using Alexa488 (E2A, green) and Alexa647 (Capsid, red) conjugated secondary antibodies. Fluorescence intensity was measured using a Tecan Infinite 200M plate reader using an excitation and emission wavelength of 488 and 520nm for Alexa488 and 640 and 670nm for Alexa647 respectively. Fluorescence intensity was normalized to untreated, infected cells at 48h p.i.. xy charts represent average values and standard deviations based on three independent experiments measured in triplicates. (B) H1299 cells were infected with an HAdV-C5 delta E3 virus, encoding a CMV promoter driven eGFP expression cassette, at a multiplicity of 20FFU/cell and treated with the depicted concentrations of ATO at 2h p.i.; 24 or 48 h p.i. cell viability was assessed using the Promega CellTiter-Blue Cell Viability Assay system, and GFP fluorescence intensity was measured using a Tecan Infinite 200M plate reader using an excitation and emission wavelength of 488 and 520nm. Fluorescence intensity was normalized to untreated, infected cells at 48h p.i.; xy charts represent average values and standard deviations based on three independent experiments measured in triplicates. (C) H1299 cells were infected with an eGFP expressing HAdV-C5 based first generation adenoviral vector at a multiplicity of 20 FFU/cell and treated with the depicted concentrations of ATO at 2h p.i.; 24 or 48h p.i., cell viability was assessed using the Promega CellTiter-Blue Cell Viability Assay system, and GFP fluorescence intensity was measured using a Tecan Infinite 200M plate reader using an excitation and emission wavelength of 488 and 520nm. […]

Assay [3] deals with HAdV-C5 wt. Put plainly: Tecan plate reader measurement of E2A and capsid immunofluorescence intensity in infected H1299 cells (Fig. 2A). The method, then:
• Figure 1: ATO efficiently reduces HAdV infectivity (cf. Example 1). H1299 cells were infected with HAdV-C5 wt at a multiplicity of 5 FFU/cell, treated with the depicted concentrations of ATO at 2 h.p.i., fixed 48 h.p.i. with 4 % PFA and double labeled with mAb B6-8 (α-E2A) and pAb L133 (α-Capsid). Primary antibodies were detected using Alexa488 (E2A, green) and Alexa568 (Capsid, red) conjugated secondary antibodies. (A) The number of E2A and Capsid expressing cells, respectively, was counted in n=40 overview pictures (not shown), normalized to untreated, infected cells, and represented in bar charts. Bar charts represent average values and standard deviations based on four independent experiments. (B) H1299 cells were infected with HAdV-C5 at a multiplicity of 20 FFU/cell, and treated with the depicted concentrations of ATO at 2 h.p.i.. Viral particles were harvested 48 h.p.i. and virus yield was determined by quantitative E2A immunofluorescence staining in 293 cells. Bar charts represent average values and standard deviations based on three independent experiments. Statistically significant differences were determined using a two-sided Welch's t-test. *: P ≤ 0.05, **: P ≤ 0.01, ***: P ≤ 0.001, ****: P ≤ 0.0001. • Figure 2: ATO induces a dose dependent reduction of HAdV infectivity with minor effects on cell viability (cf. Example 2). (A) H1299 cells were infected with HAdV-C5 wt at a multiplicity of 20 FFU/cell and treated with the depicted concentrations of ATO at 2 h.p.i.. 24 or 48 h.p.i., cell viability was assessed using the Promega CellTiter-Blue Cell Viability Assay system, prior to fixation with 4 % PFA and cells were double labeled with mAb B6-8 (α-E2A) and pAb L133 (α-Capsid). Primary antibodies were detected using Alexa488 (E2A, green) and Alexa647 (Capsid, red) conjugated secondary antibodies. Fluorescence intensity was measured using a Tecan Infinite 200M plate reader using an excitation and emission wavelength of 488 and 520nm for Alexa488 and 640 and 670nm for Alexa647 respectively. Fluorescence intensity was normalized to untreated, infected cells at 48h p.i.. xy charts represent average values and standard deviations based on three independent experiments measured in triplicates. (B) H1299 cells were infected with an HAdV-C5 delta E3 virus, encoding a CMV promoter driven eGFP expression cassette, at a multiplicity of 20FFU/cell and treated with the depicted concentrations of ATO at 2h p.i.; 24 or 48 h p.i. cell viability was assessed using the Promega CellTiter-Blue Cell Viability Assay system, and GFP fluorescence intensity was measured using a Tecan Infinite 200M plate reader using an excitation and emission wavelength of 488 and 520nm. Fluorescence intensity was normalized to untreated, infected cells at 48h p.i.; xy charts represent average values and standard deviations based on three independent experiments measured in triplicates. (C) H1299 cells were infected with an eGFP expressing HAdV-C5 based first generation adenoviral vector at a multiplicity of 20 FFU/cell and treated with the depicted concentrations of ATO at 2h p.i.; 24 or 48h p.i., cell viability was assessed using the Promega CellTiter-Blue Cell Viability Assay system, and GFP fluorescence intensity was measured using a Tecan Infinite 200M plate reader using an excitation and emission wavelength of 488 and 520nm. Fluorescence intensity was normalized to untreated, infected cells at 48h p..i.; xy charts represent average values and standard deviations based on three independent experiments measured in triplicates. (D) A549 cells were infected with an HAdV-C5 delta E3 virus, encoding a CMV promoter driven eGFP expression cassette, at a multiplicity of 20FFU/cell and treated with the depicted concentrations of ATO at 2h p.i.. GFP-fluorescence, as well as cell growth via phase contrast-imaging was assessed for 48 h with a 2h increment using an IncuCyte S3 Live-Cell Analysis System. […]

On to arsenic trioxide [ATO], for which the E1B-55K viral protein entry with HAdV-C5 wt [1] is on record as “decrease”. The E4orf6 viral protein entry with HAdV-C5 wt [1] is recorded as “decrease”. Moreover, the “expression of the early viral protein E2A” value in the assay with HAdV-C5 wt [1] is reported as “decrease”. Besides, the “late capsid and capsid associated proteins” value with HAdV-C5 wt [1] is “decrease”. In addition, the “viral early and late protein synthesis” value with HAdV-C5 wt [1] (48 h.p.i.) is “significantly impaired”. For the same substance, the “inhibition of adenoviral infection” value in assay [2] (2µM ATO, 48h p.i.) is reported as “more than 50%”; in assay [2] (4µM ATO, 24h p.i.) it was “up to 75%”; in assay [2] (4µM ATO, 48h p.i.), “more than 75%”. For the same substance, the IC50 in assay [2] (24h p.i.) was 1610 nM; in assay [2] (48 h p.i.) it was 1180 nM; in the assay with HAdV-C5 wt [3] (24h p.i., Fig. 2A, read-out: IC50 (E2A expression)), 1910 nM; in the assay on HAdV-C5 wt [3] (48h p.i., Fig. 2A, read-out: IC50 (E2A expression)), 4060 nM; in the assay on HAdV-C5 wt [3] (48h p.i., Fig. 2A, read-out: IC50 (capsid expression)), 2070 nM. In addition, the “reduction of capsid expression” value with HAdV-C5 wt [3] (2µM ATO, 48h p.i.) came to 40%. The “reduction of E2A protein expression” value is reported as “more than 50%” in the assay with HAdV-C5 wt [3] (4µM ATO, 24h p.i.) and “up to 60%” in the assay on HAdV-C5 wt [3] (8µM ATO, 48h p.i.). For the same substance, in the assay on HAdV-C5 wt [3] (4µM ATO, 24h p.i., Fig. 2A), the “E2A expression compared to the untreated control” value is “less than 50%”. Besides, the “capsid detection / capsid expression” value in the assay on HAdV-C5 wt [3] (4µM ATO, 48h p.i.) is on record as “complete loss”. In the assay with HAdV-C5 wt [3] (4µM ATO, 48h p.i., remaining expression), the “E2A expression reduced to” value stood at 60%. Further, in the assay on HAdV-C5 wt [3] (8µM ATO, 24h p.i., Fig. 2A), the “HAdV E2A protein expression” value was “completely block; also recorded: completely blocking”. Moreover, the E2A expression result in the assay with HAdV-C5 wt [3] (8µM ATO, 48h p.i.) is on record as “not detectable; also recorded: completely blocking”.
